Laboratory results published in US20070032418A1, “Small-molecule inhibitors of angiogenin and rnases and in vivo and in vitro methods of using same” (Ambion, Inc, priority 2003, published 2007).
Read-outs that look alike come from different tables or passages of the source.

Legend:
[1] = biological target: MMLV RT RNase H (Moloney murine leukemia virus, UniProt P03355); test: Inhibition of RT-based RNase H cleavage of RNA:DNA hybrid; type: biochemical; settings: for % Cleavage: no inhibitor: 36%, 5 min at 37 C
Method: As described above, Chembridge compound #467929 offered protection from several RNA-specific endonucleolytic activities. […] A 20-mer DNA oligonucleotide was asymmetrically annealed to a 1500 base synthetic RNA to create an RNA:DNA duplex substrate for RNase H. Reactions were initiated with 10 U of MMLV RT in 1×RT buffer (50 mM TrisCl pH 8.3, 75 mM KCl, 3 mM MgCl2, 5 mM DTT) containing 500 ng/ul RNA:DNA hybrid. All reactions contained 5% DMSO either with or without the small molecule RNase inhibitor. Samples were incubated for 5 min at 37 C, and quenched with EDTA. Products were resolved on an RNA LabChip. Cleavage products were observed as two equally represented RNA species of 1000 and 500 bases. Product length and yield were determined using the 2100 BioAnalyzer software (Agilent). Table 4 details the level of inhibition of MMLV RT RNase H that is observed as a function of the concentration of compounds 467929 and 227726.

[2] = biological target: angiogenin (ANG) (Homo sapiens, UniProt P03950); test: Inhibition of ANG ribonucleolytic activity, HPLC assay of oligonucleotide cleavage; type: biochemical
Method: Reaction mixtures with and without test compounds were chromatographed on a Mono Q anion-exchange column with an NaCl gradient in 10 mM Tris, pH 8. […] This information was used to calculate kcat/Km values, which were then fitted to the equation (kcat/Km)i=(kcat/Km)0/[…], where (kcat/Km)i and (kcat/Km)0 are defined as the values in the presence and absence of inhibitor, respectively, and [I] is defined as the inhibitor concentration. At least four concentrations (in a range of about 10 μM-above 100 μM) were used in the final hit confirmation in order to distinguish all true hits.
Chemical structures of selected compounds are shown in these Tables and in FIGS. 4 and 5.

[3] = biological target: T1, bovine pancreatic RNase A (Bos taurus, UniProt P61823); test: Inhibition of bovine pancreatic RNase A (specificity versus ANG); type: biochemical
T1 sequence (P61823 27-150): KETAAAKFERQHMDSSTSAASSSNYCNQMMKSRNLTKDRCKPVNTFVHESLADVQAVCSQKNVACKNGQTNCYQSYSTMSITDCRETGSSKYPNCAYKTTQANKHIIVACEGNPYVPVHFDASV

[4] = system: PC-3 human prostate tumor cells; test: PC-3 tumor formation in athymic mice; type: in vivo; settings: PC-3 s.c.
Method: Compound NCI-65828 was identified by HTS as an ANG inhibitor. […] Each compound was administered 6 times per week, in doses of 40 μg, 8 μg, and 1.6 μg (about 2, 0.4 and 0.08 mg/kg/day). The compound was dissolved in DMSO, and control mice received a corresponding volume of DMSO (4%, 0.8% and 0%). Another control group received saline.
Another in vivo mouse experiment was performed using 8 or 12 mice per group. The experimental group was administered PC-3 cells and NCI-65828, as intraperitoneal injections (40 μg and 8 μg). A control group of mice was administered PC-3 cells and a related compound that was known to be ineffective at inhibiting ANG enzymatic activity. Mice were evaluated for number of animals that remained tumor free as a function of time, at intervals of 3 days from days 14-42 following the initial injection.
Concentrated stocks of inhibitors were prepared in dimethylsulfoxide (DMSO), and the inhibitors were diluted into phosphate-buffered saline (PBS); the final DMSO concentration for the 40 μg and 20 μg doses was 4% in PBS, and that for the 8 μg and 4 μg doses was 0.8% in PBS. Statistical significance (P values) was determined from Mantel-Cox tests performed on Kaplan-Meier survivor functions. Results for inhibitor-treated groups were compared to results obtained with the appropriate DMSO control groups. A positive control group of mice, administered antisense DNA specific for the ANG gene in PBS (no DMSO), was also included. ANG antisense DNA was shown previously to be extremely effective in this tumor model.
Tumor cells from a human prostate cancer (PC-3) were injected subcutaneously (s.c.) in the shoulder of 6-7 week old athymic (nude) mice on day 0. Treatment with the indicated amount of inhibitor (in 100 μL) was given subcutaneously in the same area as the cells, 6 times per week, with the first injection 5-10 minutes prior to injection of the cells. The total dosage was 0.4 mg to 2 mg per kg per day.

[5] = biological target: E. coli RNase I (Escherichia coli, UniProt P21338); test: Intactness of total RNA challenged with purified RNase; type: biochemical; settings: 100 uM inhibitor; E. coli RNase I 7 ng/ul; 100 ng/ul mouse liver total RNA, 23° C., 4 min
[6] = 20 mM Hepes, 100 mM NaCl, pH 7.0, 37° C., read-out: Ki for inhibition of the ribonucleolytic activity of angiogenin
[7] = inhibition of ANG-catalyzed cleavage of an RNA oligonucleotide, 20 mM Hepes, 100 mM NaCl, 37° C., read-out: KI

Sequence of angiogenin (ANG) (P03950 25-147): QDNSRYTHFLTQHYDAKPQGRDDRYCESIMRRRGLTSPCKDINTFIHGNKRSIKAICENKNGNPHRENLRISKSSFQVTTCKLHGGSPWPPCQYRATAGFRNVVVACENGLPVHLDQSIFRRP
Sequence of E. coli RNase I (P21338 24-268): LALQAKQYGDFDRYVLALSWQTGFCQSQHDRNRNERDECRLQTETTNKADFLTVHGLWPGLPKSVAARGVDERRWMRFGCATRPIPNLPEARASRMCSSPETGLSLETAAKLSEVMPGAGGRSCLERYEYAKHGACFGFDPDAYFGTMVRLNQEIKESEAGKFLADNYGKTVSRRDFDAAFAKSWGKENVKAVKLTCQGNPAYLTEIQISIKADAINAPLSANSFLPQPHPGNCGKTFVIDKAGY

For `O=C(Nc1ccc(Cc2ccc(NC(=O)c3cccc([N+](=O)[O-])c3)c(C(=O)O)c2)cc1C(=O)O)c1cccc([N+](=O)[O-])c1` [CB-467929], the IC50 [1] was roughly 20 µM, the “% Cleavage” value ([1]; inhibitor 8 μM) was 42% and the “% Cleavage” value ([1]; inhibitor 40 μM) was 8%. The Ki [2, 6] was 24 µM.
In the case of `O=C(Nc1ccc(Cc2ccc(NC(=O)c3ccc(-c4ccccc4)cc3)c(C(=O)O)c2)cc1C(=O)O)c1ccc(-c2ccccc2)cc1` [CB-473872], the Ki [2, 6] is reported as 20 µM and the “Tighter binding to ANG than to RNase A” value [3] is reported as 2.3 fold.
`O=[N+]([O-])c1cc(/N=N/c2c(O)ccc3cc(S(=O)(=O)O)ccc23)c(O)c([N+](=O)[O-])c1` [NCI-65820] was tested, and the Ki ([2]; read-out: KI) was 25 µM and the “Tighter binding to ANG than to RNase A” value [3] was 1.5 fold.
With `O=C(N/N=C(\c1ccccc1)c1ccncc1)c1ccccc1` [NCI-227726, N′-[phenyl(4-pyridinyl)methylene] benzohydrazide, reference compound] the “% Cleavage” value ([1]; inhibitor 100 μM) was 45%, the “% Cleavage” value ([1]; inhibitor 524 μM) was 43% and the “% Cleavage” value ([1]; inhibitor 1000 μM) was 47%.
With `O=S(=O)(O)c1cc(S(=O)(=O)O)c2c(/N=N/c3ccccc3)c(O)ccc2c1` [Orange G] the Ki ([2]; read-out: KI) was 83 µM.
`Nc1ccc2cc(S(=O)(=O)O)cc(O)c2c1N=Nc1ccccc1S(=O)(=O)c1ccccc1` [S321443] gave a Ki ([2]; read-out: KI) greater than 500 µM.
With `Nc1ccc(/N=N/c2ccc(-c3ccc(O)cc3)cc2)c2ccc(S(=O)(=O)O)cc12` [Tyger-65828] the “Ki for inhibition of the ribonucleolytic activity of angiogenin” value ([2]; 20 mM Hepes, 100 mM NaCl, pH 7.0, 37° C.) was “indistinguishable from that of the NCI compound”, the “Percentage of Tumor-Bearing Mice, day 14” value ([4]; 4 μg s.c. 6 times per week) was 8% and the “Percentage of Tumor-Bearing Mice, day 17” value ([4]; 4 μg s.c. 6 times per week) was 42%. For the same compound, the “Percentage of Tumor-Bearing Mice, day 21” value ([4]; 4 μg s.c. 6 times per week) was 67%, the “Percentage of Tumor-Bearing Mice, day 24” value ([4]; 4 μg s.c. 6 times per week) was 100% and the “Percentage of Tumor-Bearing Mice, day 32” value ([4]; 4 μg s.c. 6 times per week) was 100%. The “Percentage of Tumor-Bearing Mice, day 35” value ([4]; 4 μg s.c. 6 times per week) was 100%, the “Percentage of Tumor-Bearing Mice, day 14” value ([4]; 8 μg s.c. 6 times per week) was 0% and the “Percentage of Tumor-Bearing Mice, day 17” value ([4]; 8 μg s.c. 6 times per week) was 45%. For the same compound, the “Percentage of Tumor-Bearing Mice, day 21” value ([4]; 8 μg s.c. 6 times per week) was 55%, the “Percentage of Tumor-Bearing Mice, day 24” value ([4]; 8 μg s.c. 6 times per week) was 82% and the “Percentage of Tumor-Bearing Mice, day 32” value ([4]; 8 μg s.c. 6 times per week) was 91%. For the same compound, the “Percentage of Tumor-Bearing Mice, day 35” value ([4]; 8 μg s.c. 6 times per week) was 100%, the “Percentage of Tumor-Bearing Mice, day 14” value ([4]; 20 μg s.c. 6 times per week) was 0% and the “Percentage of Tumor-Bearing Mice, day 17” value ([4]; 20 μg s.c. 6 times per week) was 25%. The “Percentage of Tumor-Bearing Mice, day 21” value ([4]; 20 μg s.c. 6 times per week) was 33%, the “Percentage of Tumor-Bearing Mice, day 24” value ([4]; 20 μg s.c. 6 times per week) was 92% and the “Percentage of Tumor-Bearing Mice, day 32” value ([4]; 20 μg s.c. 6 times per week) was 100%. For the same compound, the “Percentage of Tumor-Bearing Mice, day 35” value ([4]; 20 μg s.c. 6 times per week) was 100%, the “Percentage of Tumor-Bearing Mice, day 14” value ([4]; 40 μg s.c. 6 times per week) was 8% and the “Percentage of Tumor-Bearing Mice, day 17” value ([4]; 40 μg s.c. 6 times per week) was 33%. For the same compound, the “Percentage of Tumor-Bearing Mice, day 21” value ([4]; 40 μg s.c. 6 times per week) was 33%, the “Percentage of Tumor-Bearing Mice, day 24” value ([4]; 40 μg s.c. 6 times per week) was 83% and the “Percentage of Tumor-Bearing Mice, day 32” value ([4]; 40 μg s.c. 6 times per week) was 92%. The “Percentage of Tumor-Bearing Mice, day 35” value ([4]; 40 μg s.c. 6 times per week) was 100% and the “Time of appearance of tumors (Example 3, Table 1)” value ([4]; treatment s.c. 6 times per week) was “delayed considerably the time of appearance of tumors”.
`CC(=O)Nc1ccc(/N=N/c2c(N)ccc3cc(S(=O)(=O)O)cc(O)c23)c(S(=O)(=O)O)c1` [acid red 37] gave a Ki ([2]; read-out: KI) of 70 µM.
`CC(=O)Nc1ccc(N=Nc2c(S(=O)(=O)O)cc3cc(S(=O)(=O)O)cc(NC(C)=O)c3c2O)cc1` [acid violet 7] gave a Ki [2, 7] of 71 µM.
`Nc1ccc2cc(S(=O)(=O)O)cc(O)c2c1/N=N/c1ccc(-c2ccc(/N=N/c3ccc(O)c(C(=O)O)c3)cc2)cc1` [direct red 1] showed a Ki ([2]; read-out: KI) of 14 µM.
With `Nc1ccc2cc(S(=O)(=O)O)cc(O)c2c1N=Nc1ccc(-c2ccc(N=Nc3cc(S(=O)(=O)O)c4ccccc4c3N)cc2)cc1` [direct red 13] the Ki ([2]; read-out: KI) was 112 µM.
Compound `O=S(=O)(O)c1cc(S(=O)(=O)O)c2c(/N=N/c3ccc(S(=O)(=O)O)c4ccccc34)c(O)ccc2c1` [new coccine] has a Ki ([2]; read-out: KI) of 69 µM.
For `Cc1cc(-c2ccc(/N=N/c3c(N)ccc4cc(S(=O)(=O)O)ccc34)c(C)c2)ccc1N` [prBZBP], the Ki ([2]; read-out: KI) was 20 µM.
`O=S(=O)(O)c1ccc(/N=N/c2c(O)ccc3cc(S(=O)(=O)O)ccc23)cc1` [sunset yellow] was tested, and the Ki ([2]; read-out: KI) was 85 µM.
In the case of `Cc1ccc(C(=O)Nc2ccc(S(=O)(=O)O)c3cc(S(=O)(=O)O)cc(S(=O)(=O)O)c23)cc1NC(=O)c1cccc(NC(=O)Nc2cccc(C(=O)Nc3cc(C(=O)Nc4ccc(S(=O)(=O)O)c5cc(S(=O)(=O)O)cc(S(=O)(=O)O)c45)ccc3C)c2)c1` [suramin, reference compound], the Ki ([2]; read-out: KI) is reported as 10 µM.
For `Cc1cc(S(=O)(=O)O)ccc1N=c1ccc2c(-c3ccccc3C(=O)O)c3ccc(Nc4ccccc4C)cc3oc-2c1` [violamine R], the Ki ([2]; read-out: KI) was 107 µM.
Work on `Cc1ccc(/N=N/c2c(O)c(S(=O)(=O)O)cc3cc(S(=O)(=O)O)ccc23)c(C)c1` [xylidene ponceau 2R] yielded a Ki [2] of 49 µM.
Benzopurpurin B was tested, and the Ki [2, 6] was 5 µM, the Ki [2, 7] was 5 µM and the “Protection of total RNA from degradation” value [5] was “significant protection from RNA degradation”.
Work on cefsulodin [reference compound] yielded a Ki [2, 7] of 201 µM.
For eriochrome black T, the Ki [2, 7] was 50 µM.
